Reference: patent US20220220100A1 (SOLUTIA CANADA INC., priority 2019, published 2022)

Experiment: Photostability: xenon arc weathering of chromophore solutions, LCMS analysis
Assay type: physicochemical
Summary of the method: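 Chromophores were dissolved at 1 to 10 wt % in Rhodiasolv IRIS at 90° C, then sealed under glovebox conditions in glass cells laminated with 400 nm UV-cutoff PVB. The cells were weathered continuously in a xenon arc chamber with no dark or spray cycles. Solutions were then diluted in acetonitrile and analysed by reverse-phase LC-MS.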

[1] = 1 wt % in Rhodiasolv IRIS, xenon arc, 82° C. bp, linearly interpolated to 0.5 MJ/m2 @ 340 nm
[2] = 1 wt %, interpolated to 0.5 MJ/m^2 of energy exposure at 340 nm

## COc1cc2oc(-c3ccc(C(C)(C)C)cc3)c(C3=C(c4cc(-c5cc6c(s5)C(C)(C)CCCC6(C)C)sc4-c4cc5c(s4)C(C)(C)CCCC5(C)C)C(F)(F)C(F)(F)C3(F)F)c2cc1OC [Chromophore S405]
[1]
  Ketone (%): 2.9%
  Minus-2HF (%): 0.0%
  Minus-HF (%): 0.0%
  Sulfone (%): 0.0%
1 wt % in Rhodiasolv IRIS, xenon arc, 82° C. bp, linearly interpolated to 0.5 MJ/m2 @ 340 nm of exposure energy
  Chromophore Remaining (%): 97.1%
[2]
  Ratio of chromophore remaining relative to S340: 1.07
  Sum of degradation product percentages relative to the sum of degradation product percentages for S340: 0.33
Weathering experiments
  Photostability (in words): high photostability
